# Measured values as given in US20110105397A1, “METHOD FOR TREATING HEART FAILURE WITH STRESSCOPIN-LIKE PEPTIDES” (priority 2009, published 2011).
# Experiments:
# [1] = tested on: anaesthetized mongrel dogs; assay: Hemodynamic, angiographic, echocardiographic profile in anaesthetized healthy dogs, IV bolus; assay type: in vivo, dog
# Method: (§1) The effects of h-SCP (SEQ ID NO: 1) on cardiovascular function were also assessed in anaesthetized mongrel dogs following intravenous bolus and 30-minute infusions. Hemodynamic and left ventricular systolic and diastolic function was evaluated using conventional hemodynamic, angiographic, echocardiographic, and radiographic methods with the results summarized in Table 16.
# [2] = tested on: anaesthetized mongrel dogs; assay: Hemodynamic, angiographic, echocardiographic profile in anaesthetized healthy dogs, 30-minute IV infusion; assay type: in vivo, dog; details: for CO (Cardiac output) / HR (Heart rate) / LV + dP/dt (LV contractility) / LVEDA (LV end diastolic area) / LVEDV (LV end diastolic volume) / LVEF (LV ejection fraction) / LVESA (LV end systolic area) / LVESV (LV end systolic volume) / LVFAS (LV fractional area of shortening) / PSAP (Peak systolic aortic pressure) / SV (Stroke volume): 30 min
# Method: as §1
# The findings described above were further examined in a study, in which h-SCP (SEQ ID NO:1) was infused over a 30-minute period at the same total doses that were administered by bolus as described above with the results presented in Table 17 and FIGS. 11A & B. As in the case of bolus dosing h-SCP (SEQ ID NO:1) elicited dose- (infusion-) dependent changes in blood pressure, left ventricular systolic and diastolic function, and heart rate. However, at the lower range of the dose- (infusion-) response curve there was a pronounced lessening in the positive chronotropic and blood pressure response with marked and significant increase in cardiac function measured as increased CO and LVEF. […] The corresponding plasma concentration of h-SCP (SEQ ID NO:1) was 4,577 pg/mL.
substance,measurement,setting,value
"H-TKFTLSLDVPTNIMNLLFNIAKAKNLRAQAAANAHLMAQI-NH2 [SEQ ID NO: 1, TKFTLSLDVPTNIMNLLFNIAKAKNLRAQAAANAHLMAQI-NH2]",CO (Cardiac output),[1]; IV bolus 0.13 μg/kg,2.19 L/min
same,HR (Heart rate),[1]; IV bolus 0.13 μg/kg,73 beats/min
same,LV dP/dt (LV contractility),[1]; IV bolus 0.13 μg/kg,1546 mmHg/sec
same,LVEDA (LV end diastolic area),[1]; IV bolus 0.13 μg/kg,12.9 cm^2
same,LVEDV (LV end diastolic volume),[1]; IV bolus 0.13 μg/kg,55 mL
same,LVEF (LV ejection fraction),[1]; IV bolus 0.13 μg/kg,55%
same,LVESA (LV end systolic area),[1]; IV bolus 0.13 μg/kg,6.9 cm^2
same,LVESV (LV end systolic volume),[1]; IV bolus 0.13 μg/kg,25 mL
same,LVFAS (LV fractional area of shortening),[1]; IV bolus 0.13 μg/kg,46%
same,PSAP (Peak systolic aortic pressure),[1]; IV bolus 0.13 μg/kg,92 mmHg
same,SV (Stroke volume),[1]; IV bolus 0.13 μg/kg,30 mL
same,increase in heart rate (largest change),[1]; IV bolus 0.13 μg/kg to 13.1 μg/kg,45%
same,CO (Cardiac output),[1]; IV bolus 1.3 μg/kg,2.56 L/min
same,HR (Heart rate),[1]; IV bolus 1.3 μg/kg,85 beats/min
same,LV dP/dt (LV contractility),[1]; IV bolus 1.3 μg/kg,1606 mmHg/sec
same,LVEDA (LV end diastolic area),[1]; IV bolus 1.3 μg/kg,12.7 cm^2
same,LVEDV (LV end diastolic volume),[1]; IV bolus 1.3 μg/kg,54 mL
same,LVEF (LV ejection fraction),[1]; IV bolus 1.3 μg/kg,57%
same,LVESA (LV end systolic area),[1]; IV bolus 1.3 μg/kg,6.5 cm^2
same,LVESV (LV end systolic volume),[1]; IV bolus 1.3 μg/kg,23 mL
same,LVFAS (LV fractional area of shortening),[1]; IV bolus 1.3 μg/kg,49%
same,PSAP (Peak systolic aortic pressure),[1]; IV bolus 1.3 μg/kg,91 mmHg
same,SV (Stroke volume),[1]; IV bolus 1.3 μg/kg,30 mL
same,CO (Cardiac output),[1]; IV bolus 2.6 μg/kg,2.72 L/min
same,HR (Heart rate),[1]; IV bolus 2.6 μg/kg,92 beats/min
same,LV dP/dt (LV contractility),[1]; IV bolus 2.6 μg/kg,1675 mmHg/sec
same,LVEDA (LV end diastolic area),[1]; IV bolus 2.6 μg/kg,12.5 cm^2
same,LVEDV (LV end diastolic volume),[1]; IV bolus 2.6 μg/kg,52 mL
same,LVEF (LV ejection fraction),[1]; IV bolus 2.6 μg/kg,57%
same,LVESA (LV end systolic area),[1]; IV bolus 2.6 μg/kg,6.2 cm^2
same,LVESV (LV end systolic volume),[1]; IV bolus 2.6 μg/kg,22 mL
same,LVFAS (LV fractional area of shortening),[1]; IV bolus 2.6 μg/kg,50%
same,PSAP (Peak systolic aortic pressure),[1]; IV bolus 2.6 μg/kg,90 mmHg
same,SV (Stroke volume),[1]; IV bolus 2.6 μg/kg,30 mL
same,CO (Cardiac output),[1]; IV bolus 4.4 μg/kg,2.80 L/min
same,HR (Heart rate),[1]; IV bolus 4.4 μg/kg,94 beats/min
same,LV dP/dt (LV contractility),[1]; IV bolus 4.4 μg/kg,1682 mmHg/sec
same,LVEDA (LV end diastolic area),[1]; IV bolus 4.4 μg/kg,12.4 cm^2
same,LVEDV (LV end diastolic volume),[1]; IV bolus 4.4 μg/kg,51 mL
same,LVEF (LV ejection fraction),[1]; IV bolus 4.4 μg/kg,58%
same,LVESA (LV end systolic area),[1]; IV bolus 4.4 μg/kg,6.0 cm^2
same,LVESV (LV end systolic volume),[1]; IV bolus 4.4 μg/kg,22 mL
same,LVFAS (LV fractional area of shortening),[1]; IV bolus 4.4 μg/kg,52%
same,PSAP (Peak systolic aortic pressure),[1]; IV bolus 4.4 μg/kg,90 mmHg
same,SV (Stroke volume),[1]; IV bolus 4.4 μg/kg,30 mL
same,CO (Cardiac output),[1]; IV bolus 13.1 μg/kg,2.86 L/min
same,HR (Heart rate),[1]; IV bolus 13.1 μg/kg,107 beats/min
same,LV dP/dt (LV contractility),[1]; IV bolus 13.1 μg/kg,1760 mmHg/sec
same,LVEDA (LV end diastolic area),[1]; IV bolus 13.1 μg/kg,11.4 cm^2
same,LVEDV (LV end diastolic volume),[1]; IV bolus 13.1 μg/kg,46 mL
same,LVEF (LV ejection fraction),[1]; IV bolus 13.1 μg/kg,60%
same,LVESA (LV end systolic area),[1]; IV bolus 13.1 μg/kg,5.2 cm^2
same,LVESV (LV end systolic volume),[1]; IV bolus 13.1 μg/kg,18 mL
same,LVFAS (LV fractional area of shortening),[1]; IV bolus 13.1 μg/kg,53%
same,PSAP (Peak systolic aortic pressure),[1]; IV bolus 13.1 μg/kg,88 mmHg
same,SV (Stroke volume),[1]; IV bolus 13.1 μg/kg,28 mL
same,CO (Cardiac output),[2]; IV infusion 22 ng/kg/min,2.32 L/min
same,HR (Heart rate),[2]; IV infusion 22 ng/kg/min,81.2 beats/min
same,LV + dP/dt (LV contractility),[2]; IV infusion 22 ng/kg/min,1598 mmHg/sec
same,LVEDA (LV end diastolic area),[2]; IV infusion 22 ng/kg/min,12.2 cm^2
same,LVEDV (LV end diastolic volume),[2]; IV infusion 22 ng/kg/min,53.0 mL
same,LVEF (LV ejection fraction),[2]; IV infusion 22 ng/kg/min,54.0%
same,LVESA (LV end systolic area),[2]; IV infusion 22 ng/kg/min,6.3 cm^2
same,LVESV (LV end systolic volume),[2]; IV infusion 22 ng/kg/min,24.5 mL
same,LVFAS (LV fractional area of shortening),[2]; IV infusion 22 ng/kg/min,49%
same,PSAP (Peak systolic aortic pressure),[2]; IV infusion 22 ng/kg/min,95.0 mmHg
same,SV (Stroke volume),[2]; IV infusion 22 ng/kg/min,28.5 mL
same,CO (Cardiac output),[2]; IV infusion 43 ng/kg/min,2.82 L/min
same,HR (Heart rate),[2]; IV infusion 43 ng/kg/min,88.7 beats/min
same,LV + dP/dt (LV contractility),[2]; IV infusion 43 ng/kg/min,1875 mmHg/sec
same,LVEDA (LV end diastolic area),[2]; IV infusion 43 ng/kg/min,11.9 cm^2
same,LVEDV (LV end diastolic volume),[2]; IV infusion 43 ng/kg/min,55.2 mL
same,LVEF (LV ejection fraction),[2]; IV infusion 43 ng/kg/min,57.5%
same,LVESA (LV end systolic area),[2]; IV infusion 43 ng/kg/min,5.8 cm^2
same,LVESV (LV end systolic volume),[2]; IV infusion 43 ng/kg/min,23.5 mL
same,LVFAS (LV fractional area of shortening),[2]; IV infusion 43 ng/kg/min,51.5%
same,PSAP (Peak systolic aortic pressure),[2]; IV infusion 43 ng/kg/min,95.2 mmHg
same,SV (Stroke volume),[2]; IV infusion 43 ng/kg/min,31.7 mL
same,CO (Cardiac output),[2]; IV infusion 86 ng/kg/min,2.81 L/min
same,HR (Heart rate),[2]; IV infusion 86 ng/kg/min,91.0 beats/min
same,LV + dP/dt (LV contractility),[2]; IV infusion 86 ng/kg/min,1622 mmHg/sec
same,LVEDA (LV end diastolic area),[2]; IV infusion 86 ng/kg/min,11.8 cm^2
same,LVEDV (LV end diastolic volume),[2]; IV infusion 86 ng/kg/min,54.2 mL
same,LVEF (LV ejection fraction),[2]; IV infusion 86 ng/kg/min,56.5%
same,LVESA (LV end systolic area),[2]; IV infusion 86 ng/kg/min,5.9 cm^2
same,LVESV (LV end systolic volume),[2]; IV infusion 86 ng/kg/min,23.5 mL
same,LVFAS (LV fractional area of shortening),[2]; IV infusion 86 ng/kg/min,50.0%
same,PSAP (Peak systolic aortic pressure),[2]; IV infusion 86 ng/kg/min,91.7 mmHg
same,SV (Stroke volume),[2]; IV infusion 86 ng/kg/min,30.7 mL
same,CO (Cardiac output),[2]; IV infusion 146 ng/kg/min,2.97 L/min
same,HR (Heart rate),[2]; IV infusion 146 ng/kg/min,102.5 beats/min
same,LV + dP/dt (LV contractility),[2]; IV infusion 146 ng/kg/min,1594 mmHg/sec
same,LVEDA (LV end diastolic area),[2]; IV infusion 146 ng/kg/min,11.5 cm^2
same,LVEDV (LV end diastolic volume),[2]; IV infusion 146 ng/kg/min,49.5 mL
same,LVEF (LV ejection fraction),[2]; IV infusion 146 ng/kg/min,58.2%
same,LVESA (LV end systolic area),[2]; IV infusion 146 ng/kg/min,5.6 cm^2
same,LVESV (LV end systolic volume),[2]; IV infusion 146 ng/kg/min,20.7 mL
same,LVFAS (LV fractional area of shortening),[2]; IV infusion 146 ng/kg/min,51%
same,PSAP (Peak systolic aortic pressure),[2]; IV infusion 146 ng/kg/min,90.0 mmHg
same,SV (Stroke volume),[2]; IV infusion 146 ng/kg/min,28.7 mL
same,CO (Cardiac output),[2]; IV infusion 437 ng/kg/min,3.25 L/min
same,LV + dP/dt (LV contractility),[2]; IV infusion 437 ng/kg/min,1657 mmHg/sec
same,LVEDA (LV end diastolic area),[2]; IV infusion 437 ng/kg/min,10.8 cm^2
same,LVEDV (LV end diastolic volume),[2]; IV infusion 437 ng/kg/min,46.0 mL
same,LVEF (LV ejection fraction),[2]; IV infusion 437 ng/kg/min,60.7%
same,LVESA (LV end systolic area),[2]; IV infusion 437 ng/kg/min,5.1 cm^2
same,LVESV (LV end systolic volume),[2]; IV infusion 437 ng/kg/min,18.2 mL
same,LVFAS (LV fractional area of shortening),[2]; IV infusion 437 ng/kg/min,53.5%
same,PSAP (Peak systolic aortic pressure),[2]; IV infusion 437 ng/kg/min,89.5 mmHg
same,SV (Stroke volume),[2]; IV infusion 437 ng/kg/min,28 mL
same,HR (Heart rate),"[2]; IV infusion 437 ng/kg/min, junctional tachycardia",117.3 beats/min
same,minimum anticipated biological effect level (MABEL),[2]; healthy dogs,22 ng/kg/min
same,infusion rate for minimal effect,"[2]; healthy dogs, 30-minute infusion",43 ng/kg/min
